These results are taken from ChEMBL document CHEMBL6096702, “Discovery of a Novel p38α-MK2 Complex Inhibitor as a Potential Choice for Autoimmune Diseases” (J Med Chem, 2025).

The term IC50 denotes the concentration that gives 50% inhibition. The term AUC(0-t) denotes the area under the concentration-time curve up to a stated or last time point. A word on the bioavailability: it is dose-corrected exposure relative to a reference, in per cent. By MRT is commonly meant a mean duration of stay, worked out from the concentration-time curve. As a reminder, the clearance is a measure of how efficiently the substance is removed, as volume per time. Read a low clearance as inefficient removal. Broadly, the Cmax is the maximum level reached in the sampled fluid or tissue. As a reminder, the half-life is how long it takes for the measured level to halve. Read a high half-life as slow loss.

A short description of data set [1]: Inhibition of N-terminal GST-tagged wildtype human P38alpha (4 to 152 residues) extracted from Escherichia coli/GST-tagged MK2 (unknown origin) assessed as reduction in HSP27 phosphorylation incubated for 2 hrs in presence of ATP and HSP27-FITC peptide by fluorescence polarization based IMAP assay.
Data set [2] can be described thus: Inhibition of N-terminal GST-tagged wildtype human P38alpha (4 to 152 residues) extracted from Escherichia coli/GST-tagged PRAK (unknown origin) assessed as reduction in HSP27 phosphorylation incubated for 2 hrs in presence of ATP and HSP27-FITC peptide by fluorescence polarization based IMAP assay. (Polarisation of emitted light reports the rotation of a fluorescent probe.)

Data set [3] is described as follows: Selectivity ratio of IC50 for inhibition of N-terminal GST-tagged wildtype human P38alpha (4 to 152 residues) extracted from Escherichia coli/GST-tagged PRAK (unknown origin) to IC50 for inhibition of N-terminal GST-tagged wildtype human P38alpha (4 to 152 residues) extracted from Escherichia coli/GST-tagged MK2 (unknown origin).
Data set [4] in a line: AUClast in male Sprague-Dawley rat at 2 mg/kg, po measured after 24 hrs by LC-MS/MS analysis. The format is ADME, organism-based. Conditions: in vivo.
Data set [5] in a line: Oral bioavailability in male Sprague-Dawley rat at 2 mg/kg measured after 24 hrs by LC-MS/MS analysis. In kind it is ADME, organism-based. Conditions: in vivo.
A short description of data set [6]: MRT in male Sprague-Dawley rat at 1 mg/kg, iv measured after 24 hrs by LC-MS/MS analysis. Conditions: in vivo. The format is ADME, organism-based.
Data set [7] is described as follows: AUClast in male Sprague-Dawley rat at 1 mg/kg, iv measured after 24 hrs by LC-MS/MS analysis. The format is ADME, organism-based. Conditions: in vivo.
Data set [8] can be described thus: Clearance in male Sprague-Dawley rat at 1 mg/kg, iv measured after 24 hrs by LC-MS/MS analysis. In kind it is ADME, organism-based. Conditions: in vivo.
A short description of data set [9]: Volume of distribution at steady state in male Sprague-Dawley rat at 1 mg/kg, iv measured after 24 hrs by LC-MS/MS analysis. Conditions: in vivo, read-out: Vdss. The format is ADME, organism-based.
Data set [10] in a line: Cmax in male Sprague-Dawley rat at 2 mg/kg, po measured after 24 hrs by LC-MS/MS analysis. Conditions: in vivo. In kind it is ADME, organism-based.
Data set [11] in a line: Half-life in male Sprague-Dawley rat at 1 mg/kg, iv measured after 24 hrs by LC-MS/MS analysis. In kind it is ADME, organism-based. Conditions: in vivo.

On to `Cc1cnc(-c2ccnc(C(C)(C)O)n2)cc1N1CCC(OCc2ncc(F)cc2F)CC1=O` (stereo unspecified), for which the IC50 in data set [1] is greater than 10 µM.

`Cc1cnc(-c2ccnc(C(C)(C)O)n2)cc1-n1ncc(OCc2ncc(F)cc2F)c(Cl)c1=O`: the IC50 in [1] was 1.15 µM.

For the compound `Cc1ccc(-c2ccnc(C(C)(C)O)n2)cc1-n1c(C)cc(OCc2ncc(F)cc2F)c(Cl)c1=O`, the IC50 in [1] was 0.0036 µM; in data set [2], 2.9 µM. The Ratio IC50 in [3] was 805.

With `Cc1cnc(-c2ccnc(C(C)(C)O)n2)c(F)c1-n1c(C)cc(O[C@@H](C)c2ncc(F)cc2F)c(C(C)C)c1=O`, in data set [1], the IC50 was 0.092 µM.

For the compound `Cc1cnc(-c2ccnc(C(C)(C)O)n2)cc1-n1c(C)cc(Oc2ncc(F)cc2F)c(Cl)c1=O`, the half-inhibitory concentration (IC50) in data set [1] was greater than 10 µM.

As for `Cc1cnc(-c2cccc(C(C)(C)O)c2Cl)c(F)c1-n1c(C)cc(OCc2ncc(F)cc2F)c(Cl)c1=O`, the IC50 in [1] was 0.006 µM.

As for `Cc1cnc(-c2ccnc(C(C)(C)O)n2)c(F)c1-n1c(C)cc(O[C@@H](C)c2ncc(F)cc2F)c(C=O)c1=O`, the IC50 in [1] turned out to be 0.143 µM.

Take `C=Cc1c(O[C@@H](C)c2ncc(F)cc2F)cc(C)n(-c2c(C)cnc(-c3ccnc(C(C)(C)O)n3)c2F)c1=O`: the IC50 in data set [1] came out at 0.034 µM.

For `Cc1cnc(-c2ccnc(C(C)(C)O)n2)c(F)c1-n1c(C)cc(O[C@@H](C)c2ncc(F)cc2F)c(C(F)F)c1=O`, in data set [1], the IC50 was determined as 0.112 µM.

For the compound `Cc1cc(OCc2ncc(F)cc2F)c(Cl)c(=O)n1C1=CCCN(c2ccnc(C(C)(C)O)n2)C1`, in [1], the 50% inhibitory concentration (IC50) was greater than 10 µM.

Take `Cc1cnc(-c2cc(C(C)(C)O)ccc2F)c(F)c1-n1c(C)cc(OCc2ncc(F)cc2F)c(Cl)c1=O`: the values for the half-maximal inhibitory concentration (IC50) in data set [1] and in data set [2] were 0.0172 µM and 0.0029 µM, respectively. In data set [3], the Ratio IC50 amounted to 0.2.

Take `Cc1cnc(-c2cccc(C(C)(C)O)c2F)c(F)c1-n1c(C)cc(O[C@@H](C)c2ncc(F)cc2F)c(Cl)c1=O`: the results for the half-maximal inhibitory concentration (IC50) in data set [1] and in data set [2] were 0.0007 µM and 0.023 µM, respectively. The Ratio IC50 in data set [3] worked out at 33.

For the compound `Cc1cnc(-c2ccnc(C(C)(C)O)n2)cc1-n1c(C)cc(OCc2ncc(F)cc2F)c(C)c1=O`, in data set [1], the half-inhibitory concentration (IC50) came out at 0.088 µM.

For `Cc1cnc(-c2cccc(C(C)(C)O)c2C)c(F)c1-n1c(C)cc(OCc2ncc(F)cc2F)c(Cl)c1=O`, in data set [1], the IC50 stood at 0.068 µM.

Take `Cc1cnc(-c2ccnc(C(C)(C)O)n2)cc1-c1c(C)cc(OCc2ncc(F)cc2F)c(Cl)c1F`: in [1], the IC50 is greater than 10 µM.

For `Cc1cnc(-c2ccnc(C(C)(C)O)n2)c(F)c1-n1c(C)cc(OCc2ncc(F)cc2F)c(C)c1=O`, the area under the curve AUC(0-t) at 24 h in [4] is 1310 ng·h/mL; in [7], 1170 ng·h/mL. The bioavailability in [5] is 56%. Besides, the IC50 in data set [1] was determined as 0.004 µM; in data set [2], 5.32 µM. Besides, the MRT in data set [6] was 1.1 h. Besides, in data set [8], the clearance stood at 13.9 mL/min/kg. For the same compound, the Vd in data set [9] stood at 0.9 L/kg. For the same compound, the Ratio IC50 in data set [3] was 1330. For the same compound, the peak level in data set [10] (Cmax) was 496 ng/mL. This compound gave a half-life in data set [11] of 0.9 h.

`Cc1cnc(-c2ccnc(C(C)(C)O)n2)cc1-c1c(C)cc(OCc2ncc(F)cc2F)c[n+]1[O-]`: the IC50 in [1] was greater than 10 µM.

For the compound `Cc1cnc(-c2cccc(C(C)(C)O)c2)c(F)c1-n1c(C)cc(OCc2ncc(F)cc2F)c(Cl)c1=O`, the AUC(0-t) at 24 h in data set [4] worked out at 1980 ng·h/mL; in data set [7], 1800 ng·h/mL. This compound also came in with a bioavailability in data set [5] of 55%. The IC50 was 0.0005 µM in [1] and 0.506 µM in [2]. This compound also gave a mean residence time MRT in data set [6] of 1.2 h. Moreover, the clearance in data set [8] was found to be 10 mL/min/kg. Further, in data set [9], the Vd was 0.7 L/kg. The Ratio IC50 in data set [3] was determined as 1010. This compound returned a maximum concentration (Cmax) in data set [10] of 738 ng/mL. This compound had a half-life in data set [11] of 1.5 h.

On to `C=C(C)c1c(O[C@@H](C)c2ncc(F)cc2F)cc(C)n(-c2c(C)cnc(-c3ccnc(C(C)(C)O)n3)c2F)c1=O`, for which, in [1], the half-maximal inhibitory concentration (IC50) is greater than 1 µM.

On to `Cc1cnc(-c2cccc(C(C)(C)O)c2F)c(F)c1-n1c(C)cc(O[C@@H](C)c2ncc(F)cc2F)c(C)c1=O`, for which the concentration for half-maximal inhibition (IC50) in [1] is 0.0016 µM; in data set [2], 0.394 µM. Moreover, the Ratio IC50 in data set [3] amounted to 246.

In the case of `Cc1cnc(-c2ccnc(C(C)(C)O)n2)cc1-c1c(C)cc(OCc2ncc(F)cc2F)c(Cl)[n+]1[O-]`, the IC50 in data set [1] came out at 0.0839 µM.

Consider `COc1c(O[C@@H](C)c2ncc(F)cc2F)cc(C)n(-c2c(C)cnc(-c3ccnc(C(C)(C)O)n3)c2F)c1=O`, for which, in data set [1], the IC50 was determined as 0.026 µM.

Consider `Cc1cnc(-c2ccnc(C(C)(C)O)n2)cc1-n1c(C)cc(SCc2ncc(F)cc2F)c(Cl)c1=O`, for which, in [1], the half-maximal inhibitory concentration (IC50) stood at 0.0226 µM.

Regarding `Cc1cnc(-c2cccc(C(C)(C)O)c2F)cc1-n1c(C)cc(O[C@@H](C)c2ncc(F)cc2F)c(Cl)c1=O`, the figures for the half-inhibitory concentration (IC50) in data set [1] and in data set [2] were 0.0016 µM and 0.504 µM, respectively. Besides, the Ratio IC50 in data set [3] is 315.

With `Cc1cnc(-c2cccc(C(C)(C)O)c2F)cc1-n1c(C)cc(O[C@@H](C)c2ncc(F)cc2F)c(C)c1=O`, the IC50 in data set [1] worked out at 0.0155 µM.

For the compound `Cc1ccc(C(C)(C)O)cc1-c1ncc(C)c(-n2c(C)cc(OCc3ncc(F)cc3F)c(Cl)c2=O)c1F`, the concentration for half-maximal inhibition (IC50) in data set [1] was 0.062 µM.

In the case of `Cc1cnc(-c2cccc(C(C)(C)O)n2)cc1-n1c(C)cc(OCc2ncc(F)cc2F)c(Cl)c1=O`, the IC50 in data set [1] was found to be 0.003 µM; in [2] it was 0.999 µM. Also, in [3], the Ratio IC50 was determined as 333.

Regarding `Cc1cnc(-c2ccnc(C(C)(C)O)n2)cc1-n1c(C)cc(OC2CN(c3ncc(F)cc3F)C2)c(Cl)c1=O`, the IC50 in data set [1] amounted to 0.284 µM.

As to `Cc1cnc(-c2ccnc(C(C)(C)O)n2)cc1-c1c(F)cc(OCc2ncc(F)cc2F)c(Cl)c1C`, in data set [1], the IC50 is greater than 10 µM.

For the compound `Cc1cnc(-c2cccc(C(C)(C)O)c2F)c(C)c1-n1c(C)cc(O[C@@H](C)c2ncc(F)cc2F)c(Cl)c1=O`, the half-inhibitory concentration (IC50) in data set [1] worked out at 0.0128 µM; in data set [2], 1.4 µM. In addition, in data set [3], the Ratio IC50 amounted to 109.

As for `Cc1cnc(-c2ccnc(C(C)(C)O)n2)cc1-n1c(C)cc(O[C@@H](C)c2ncc(F)cc2F)c(Cl)c1=O`, the half-inhibitory concentration (IC50) in data set [1] is greater than 1 µM.

As for `Cc1cnc(-c2cc(C(C)(C)O)ccc2F)c(F)c1-n1c(C)cc(O[C@@H](C)c2ncc(F)cc2F)c(Cl)c1=O`, the 50% inhibitory concentration (IC50) in data set [1] came out at 0.061 µM.

As for `CCc1c(O[C@@H](C)c2ncc(F)cc2F)cc(C)n(-c2c(C)cnc(-c3ccnc(C(C)(C)O)n3)c2F)c1=O`, in [1], the half-maximal inhibitory concentration (IC50) is 0.004 µM.

Take `Cc1cnc(-c2ccnc(C(C)(C)O)n2)cc1-c1c(C)c(Cl)c(OCc2ncc(F)cc2F)c[n+]1[O-]`: in [1], the IC50 is greater than 10 µM.

For `Cc1nn(-c2ccnc(C(C)(C)O)n2)cc1-n1c(C)cc(OCc2ncc(F)cc2F)c(Cl)c1=O`, the IC50 in [1] was 1.3 µM.

On to `Cc1cnc(-c2cc(C(C)(C)O)ccc2Cl)c(F)c1-n1c(C)cc(OCc2ncc(F)cc2F)c(Cl)c1=O`, for which the IC50 in [1] was 0.019 µM.

For `Cc1cnc(-c2cccc(C(C)(C)O)c2)cc1-n1c(C)cc(OCc2ncc(F)cc2F)c(Cl)c1=O`, the concentration for half-maximal inhibition (IC50) in data set [1] came to 0.0053 µM; in [2], 1.95 µM. In addition, the Ratio IC50 in data set [3] was determined as 368.

Consider `Cc1cnc(-c2ccnc(C(C)(C)O)n2)cc1-n1c(C)cc(COc2ncc(F)cc2F)c(Cl)c1=O`, for which the IC50 in data set [1] is 1.54 µM.

Consider `Cc1cnc(-c2ccnc(C(C)(C)O)n2)c(F)c1-n1c(C)cc(O[C@@H](C)c2ncc(F)cc2F)c(C2CC2)c1=O`, for which the 50% inhibitory concentration (IC50) in data set [1] stood at 0.032 µM.

As to `Cc1cnc(-c2ccnc(C(C)(C)O)n2)nc1-n1c(C)cc(OCc2ncc(F)cc2F)c(Cl)c1=O`, the 50% inhibitory concentration (IC50) in [1] is greater than 10 µM.
